The supplement of paper PMC5579334

Assays:
HS-PSS [1] = test: relative IC50 (inflection point of fitted dose-response curve, CellTox-Green cytotoxicity, 72 h; top asymptote may be below 50%); higher = less potent
Procedure, shortened: (§1)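 For 72 h at 37 °C, MPNST cell lines and primary human Schwann cells were exposed in 384-well plates to five 10-fold compound dilutions. CellTox-Green, added before seeding at a final 1:1000 dilution, gave fluorescence from DNA released by disrupted cells. Signals were scaled to vehicle and positive-control wells, cultures failing plate quality control were left out, and four-parameter logistic fits were applied. Relative IC50 and drug sensitivity score were derived from the fits, with IC50 censored at the top concentration.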

HSC1 [2] = test: as above
Procedure, shortened: as §1

HSC2 [3] = test: as above
Procedure, shortened: as §1

S1507-2 = test: as above
Procedure, shortened: as §1

ST8814 [4] = test: as above
Procedure, shortened: as §1

STS26T [5] = test: as above
Procedure, shortened: as §1

HS-PSS [6] = test: relative IC50 (inflection point of fitted dose-response curve, CellTiter-Glo viability, 72 h; top asymptote may be below 50% inhibition); higher = less potent
Procedure, shortened: (§2)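 After seeding 750–1000 cells per well of MPNST cell lines or primary human Schwann cells into 384-well plates preprinted with each compound at five concentrations in 10-fold steps, plates were kept 72 h at 37 °C, 5% CO2. Viability was read as CellTiter-Glo ATP luminescence relative to vehicle and positive-control wells, with duplicates averaged where present. The data were fitted with four-parameter logistic models. Drug sensitivity score and relative IC50, censored at the top concentration, derive from the fits, and percent inhibition refers to the top concentration.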

HS-Sch-2 = test: as above
Procedure, shortened: as §2

HSC2 [7] = test: as above
Procedure, shortened: as §2

YST-1 = test: as above
Procedure, shortened: as §2

HSC1 [8] = test: as above
Procedure, shortened: as §2

STS26T [9] = test: as above
Procedure, shortened: as §2

ST8814 [10] = test: as above
Procedure, shortened: as §2

SMILES | relative IC50 (HS-PSS [1]) [µM] | relative IC50 (HSC1 [2]) [µM] | relative IC50 (HSC2 [3]) [µM] | relative IC50 (S1507-2) [µM] | relative IC50 (ST8814 [4]) [µM] | relative IC50 (STS26T [5]) [µM] | relative IC50 (HS-PSS [6]) [µM] | relative IC50 (HS-Sch-2) [µM] | relative IC50 (HSC2 [7]) [µM] | relative IC50 (YST-1) [µM] | relative IC50 (HSC1 [8]) [µM] | relative IC50 (STS26T [9]) [µM] | relative IC50 (ST8814 [10]) [µM]
CCc1cncnc1N1CCN(Cc2nc3ccc(C(F)(F)F)cc3[nH]2)CC1 | > 10 | > 10 | > 10 | > 10 | > 10 | > 10 | 2.57 | 3.73 | – | – | – | – | –
Cc1sc2c(c1C)C(c1ccc(Cl)cc1)=N[C@H](CC(=O)OC(C)(C)C)c1nnc(C)n1-2 [(-)JQ1] | – | > 10 | > 10 | > 10 | > 10 | > 10 | – | – | – | – | – | – | –
COc1cc2nccc(Oc3ccc(NC(=O)C4(C(=O)Nc5ccc(F)cc5)CC4)cc3)c2cc1OC [Cabozantinib] | > 1 | > 1 | > 1 | > 1 | > 1 | > 1 | – | – | > 1 | > 1 | – | – | –
C[C@@H]1C[C@H]2[C@@H]3CCC4=CC(=O)C=C[C@]4(C)[C@@]3(F)[C@@H](O)C[C@]2(C)[C@@]1(O)C(=O)CO [Dexamethasone] | > 10 | > 10 | > 10 | > 10 | > 10 | > 10 | > 10 | – | > 10 | – | > 10 | > 10 | –
CN1CCN(c2ccc3nc(-c4c(N)c5c(F)cccc5[nH]c4=O)[nH]c3c2)CC1 [Dovitinib] | > 10 | > 10 | > 10 | > 10 | > 10 | > 10 | > 10 | – | – | – | – | – | > 10
O=c1[nH]cc(F)c(=O)[nH]1 [Fluorouracil] | > 10 | > 10 | > 10 | > 10 | > 10 | – | 3.57 | 2.87 | 3.29 | 3.28 | 3.58 | 0.907 | > 10
Cc1ccc(F)c(NC(=O)Nc2ccc(-c3cccc4[nH]nc(N)c34)cc2)c1 [Linifanib] | > 1 | > 1 | > 1 | > 1 | > 1 | > 1 | > 1 | > 1 | – | > 1 | > 1 | > 1 | –
NC1(c2ccc(-c3nc4ccn5c(=O)[nH]nc5c4cc3-c3ccccc3)cc2)CCC1 [MK-2206] | > 1 | > 1 | > 1 | > 1 | > 1 | > 1 | – | – | > 1 | 0.128 | – | 0.118 | > 1
C[C@H]1C[C@@H]2[C@H]([C@@H](O)C[C@@]3(C)[C@H]2CC[C@]3(O)C(=O)CO)[C@@]2(C)C=CC(=O)C=C12 [Methylprednisolone] | > 10 | > 10 | > 10 | > 10 | > 10 | > 10 | > 10 | – | > 10 | – | > 10 | > 10 | –
CCCCCCCCCCCCCCCCCCOP(=O)([O-])OC1CC[N+](C)(C)CC1 [Perifosine aq/PBS] | – | > 2.5 | > 2.5 | > 2.5 | – | 0.963 | – | – | > 2.5 | – | > 2.5 | 0.602 | –
C=CCN(/C=C1/C(=O)O[C@H](COC)[C@@]2(C)C1=C(O)C(=O)C1=C2[C@H](OC(C)=O)C[C@]2(C)C(=O)CC[C@@H]12)CC=C [Sonolisib] | > 10 | > 10 | > 10 | > 10 | > 10 | > 10 | > 10 | > 10 | – | > 10 | – | – | –
CN1CCN(c2nc(C3=C(c4c[nH]c5ccccc45)C(=O)NC3=O)c3ccccc3n2)CC1 [Sotrastaurin] | > 10 | > 10 | > 10 | > 10 | > 10 | > 10 | > 10 | > 10 | > 10 | – | > 10 | > 10 | –
CC(C)n1cnc2c(NCCc3ccc(O)cc3)nc(-c3csc4ccccc34)nc21 [StemRegenin 1] | > 10 | > 10 | > 10 | > 10 | > 10 | – | 3.2 | 3.54 | 2.2 | > 10 | 3.83 | 3.83 | 2.52
Cc1cc(C(C)Nc2ccccc2)c2nc(N3CCOCC3)cc(=O)n2c1 (centres undefined) [TGX-221] | > 10 | > 10 | > 10 | > 10 | > 10 | – | > 10 | – | > 10 | 3.37 | – | 0.875 | –
C[C@@H]1CCN(C(=O)CC#N)C[C@@H]1N(C)c1ncnc2[nH]ccc12 [Tofacitinib] | > 5 | > 5 | > 5 | > 5 | > 5 | > 5 | > 5 | > 5 | 0.742 | > 5 | – | – | > 5
CN(C)CCOc1ccc(/C(=C(/CCCl)c2ccccc2)c2ccccc2)cc1 [Toremifene] | > 10 | > 10 | > 10 | 3.22 | 2.82 | – | 3.43 | 3.46 | 2.87 | 3.74 | – | 3.44 | 4.06
CCCC(CCC)C(=O)O [Valproic acid aq] | – | > 1000 | > 1000 | > 1000 | – | – | – | – | 217 | – | 269 | 254 | 168
C[C@]1(c2nc3c(C(N)=O)cccc3[nH]2)CCCN1 [Veliparib] | > 10 | > 10 | > 10 | > 10 | > 10 | > 10 | – | > 10 | – | 1.16 | – | > 10 | > 10
